In one data set the test system is Huntingtin mRNA. Nature of the data set: In vivo down-modulation of endogenous HD mRNA by continuous intrastriatal infusion in rats. Further details: species or system rat. The settings on record: 1.3 mg over 7 days (0.5 uL/hr at 1.1 mM); for reduction of normalized Huntingtin mRNA level in cortical tissue: cortex; for reduction of normalized Huntingtin mRNA level in striatal tissue relative to the PBS control group: ipsilateral striatum. As to the method:
In rats, 1.3 mg AL-DP-1997 or AL-DP-1998, or phosphate-buffered saline (PBS, vehicle control) was administered by continuous intrastriatal infusion over 7 days. Male Sprague-Dawley rats, approximately 250-300 g body weight, received stereotaxic implantation of 30-gauge infusion cannulae (Plastics One, Roanok, Va.) such that unilateral injections were targeted to the center of the striatum (anteroposterior+0.7 mm, mediolateral+3.0 mm, relative to bregma; dorsoventral 5 mm, relative to skull surface). Mini-osmotic pumps (model 1007D) were primed overnight according to the manufacturer's specifications, implanted subcutaneously, and connected via catheters, to deliver (4 rats per treatment group) PBS, 1.1 mM AL-DP-1997 or 1.1 mM AL-DP-1998 at 0.5 uL/hr over 7 days. At the end of the 7 day infusion period, animals were sacrificed, brains were removed, and ipsilateral striata encompassing the infusion site were flash frozen. Tissue samples of about 5-30 mg each were homogenized by sonication (BANDELIN electronic GmbH & Co. KG, Berlin, Germany) in Tissue and Cell Lysis solution (Epicentre, Madison, Wis.) containing 84 μg/ml Proteinase K (Epicentre, Madison, Wis.). Lysates were then stored at −80° C. For carrying out the bDNA assay, frozen lysates were thawed at room temperature, and Huntingtin and GAPDH mRNA were quantified using the Quantigene Explore Kit according to the manufacturer's instructions. For each tissue sample, the ratio of Huntingtin/GAPDH (normalized Huntingtin mRNA level) was calculated as an average of four determinations. These ratios were then averaged to obtain a group (treatment) average. The unconjugated dsRNA, AL-DP-1997, reduced the normalized Huntingtin mRNA level by 33%, relative to the PBS control group, whereas the cholesterol-conjugated dsRNA, AL-DP-1998, reduced the normalized Huntingtin mRNA level by 26%, relative to the PBS control group. Both reductions were statistically significant (p<0.05, ANOVA with Tukey post-hoc analysis).
With an identical experimental paradigm, AL-DP-5997 and AL-DP-6000 were also found to be effective in vivo in down-modulating HD mRNA levels after intrastriatal infusion with 1.3 mg over 7 days (0.5 uL/hr at 1.1 mM) in rats. AL-DP-5997 and AL-DP-6000 reduced the normalized Huntingtin mRNA levels in striatal tissue by 34% and 36%, respectively, relative to the PBS control group. In addition, AL-DP-5997 and AL-DP-6000 reduced the normalized Huntingtin mRNA levels in cortical tissue by 22% and 26% respectively.

The subject of a further data set is endogenous HD mRNA. Nature of the data set: Screen of selected HD dsRNAs against endogenous HD mRNA expression in U87MG cells. Type of data set: cell-based, human. To be noted: for IC50: U87MG (human) cells, HD mRNA. As to the method: U87MG cells were obtained from American Type Culture Collection (Rockville, Md.) and cultured in Ham's F12 (Biochrom AG, Berlin, Germany) supplemented to contain 10% fetal calf serum (FCS) (Biochrom AG, Berlin, Germany), Penicillin 100 U/ml, Streptomycin 100 μg/ml (Biochrom AG, Berlin, Germany) at 37° C. in an atmosphere with 5% CO2 in a humidified incubator (Heraeus HERAcell, Kendro Laboratory Products, Langenselbold, Germany).
Transfection of Neuroscreen and U87MG cells with six selected siRNAs (AL-DP-5997, AL-DP-6000, AL-DP-6001, AL-DP-6014, AL-DP-6020 and AL-DP-6032), and quantitation of Huntingtin and GAPDH mRNA levels with the Quantigene Explore Kit were performed in a similar manner to that described for HeLa cells.
In both Neuroscreen (rat) and U87MG (human) cells, IC50s were higher than in HeLa cells, in general.

Take “AL-DP-5997: dsRNA targeting HD with 2'-O-methyl modifications; sense SEQ ID NO: 792, antisense SEQ ID NO: 793 (sense GUCACAAAGAACCGUGCAGTT; antisense CUGCACGGUUCUUUGUGACTT; 2'-O-methyl modified, pattern not given here)”: in the data set with Huntingtin mRNA, the “reduction of normalized Huntingtin mRNA level in cortical tissue” value came to 22% and the “reduction of normalized Huntingtin mRNA level in striatal tissue relative to the PBS control group” value was determined as 34%. The same substance displayed an IC50 with endogenous HD mRNA of 0.0027 µM.
For the substance “AL-DP-6000: dsRNA targeting HD with 2'-O-methyl modifications; sense SEQ ID NO: 798, antisense SEQ ID NO: 799 (sense UCCUGCUUUAGUCGAGAACTT; antisense GUUCUCGACUAAAGCAGGATT; 2'-O-methyl modified, pattern not given here)”, in the data set with Huntingtin mRNA, the “reduction of normalized Huntingtin mRNA level in cortical tissue” value was 26% and the “reduction of normalized Huntingtin mRNA level in striatal tissue relative to the PBS control group” value came to 36%. The substance further had an IC50 in the data set on endogenous HD mRNA of 0.098 µM. Moreover, the “potency against HD mRNA compared with the other five siRNAs” value with endogenous HD mRNA (U87MG cells) is recorded as “significantly less potent”.

By IC50 is commonly meant the point on the concentration scale where inhibition reaches its midpoint. Read a low IC50 as higher potency.

Source of the values: US8314075B2, “Compositions and methods for inhibiting expression of huntingtin gene” (Alynylam Pharmaceuticals, Inc., priority 2005, dated 2012).
